Test results: patent US20260137698A1, “CYCLIN-DEPENDENT KINASE 7 INHIBITORS” (JOINT STOCK COMPANY «BIOCAD», priority 2022, published 2026)
Like-named read-outs stand apart in the source and are kept apart here.

Key:
[1] = Microsomal stability in rat liver microsomes (RLM); format: in vitro ADME; conditions: rat liver microsomes 0.5 mg/ml, 1 μM compound, NADPH
Method: (§1) The procedure for investigating the metabolism of selected compounds was carried out in microsomal fractions of the liver (of rats, mice, humans) in the presence of a phase I metabolism cofactor (NADPH).
(§2) The rate of enzymatic decomposition of the compound in liver microsomes in in vitro analysis was determined by keeping a reaction mixture comprising 0.5 mg/ml of pooled human, rat or mouse liver microsomes, 1 μM test compound, 1.5 mM […] (Carbosynth, UK, cat. no. NN108711101) and 1.5 mM magnesium chloride in 0.1 M sodium phosphate buffer (pH 7.4) in a solid-state thermostat at 37° C. (XenoTech, USA, order no. H2610, cat. no. R1000, cat. no. M1000). Incubation was carried out in three replicates.
(§3) To determine the stability of compounds under sample preparation conditions, an aliquot in two replicates with the test compound and a microsomal fraction devoid of the NADPH cofactor, which was incubated for 40 minutes at 37° C.
(§4) Reactions were stopped at 0, 10, 20, 30 and 40 min time points by way of adding an ice mixture of acetonitrile:methanol (3:1) comprising an internal standard.
(§5) Samples were then centrifuged to remove the precipitated protein, supernatants were analyzed using HPLC-MS/MS to determine in vitro clearance (CLint) of the compounds. The Agilent 6410 mass spectrometer (Agilent, USA) combined with the Agilent 1260 Infinity II HPLC liquid chromatograph (Agilent, USA) and a cooling autosampler controlled by MassHunter software (Agilent, USA) was used as an HPLC-MS/MS system. Chromatographic analysis was performed on a C18 reversed-phase HPLC column (Agilent, Waters or equivalent) in a gradient elution mode in a system of mobile phases: 0.1% formic acid in water/0.1% formic acid in acetonitrile, flow rate: 0.5 ml/min, column T=35° C. Mass spectrometric detection was performed with electrospray ionization in multiple reaction monitoring mode. Precursor ions, fragment ions and collision energies for each substance were selected experimentally.
(§6) A graph of dependence of the logarithmic ratio between substance's peak area and internal standard's peak area vs time was built. The dependent coefficient of this line corresponded to the elimination rate constant k, on the basis of which the in vitro clearance CLint was calculated:
(§7) Based on resulting in vitro clearance CLint values, the microsomal stability of the selected compounds for humans, rats and mice was concluded.

[2] = Passive membrane permeability through PAMPA artificial membrane, pH 7.4; format: in vitro ADME; conditions: pH 7.4, 10 μmol, 20 hours at room temperature, mean of multiple measurements, read-out: PAMPA passive permeability Pe
Method in brief: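 Compound at 10 μmol in 0.01 M phosphate buffer pH 7.4 placed in donor wells over lecithin-phospholipid-impregnated PVDF filter, buffer in acceptor; 20 h at room temperature. Donor and acceptor levels measured by RP-HPLC-UV; Pe (cm/s) and membrane retention R (%) calculated.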

[3] = General cytotoxicity on primary differentiated HepaRG cells (72 h); format: cell-based; conditions: human, general toxicity, mean value from several measurements
Method in brief: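 Differentiated HepaRG cells, maintained a week in basal hepatic medium with maintenance/metabolism supplement, were plated at 25×10^3 cells/well overnight. Compounds (200 μM to 0.2 nM) were added for 72 h before viability readout.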

[4] = Microsomal stability in human liver microsomes (HLM); format: in vitro ADME; conditions: 1 μM test compound
Method: as §1, §2, §3, §4, §5, §6, §7

CDK13/Cyclin K = CDK13/Cyclin K (Homo sapiens, UniProt Q14004); assay: Inhibition of CDK13/Cyclin K kinase activity (ADP-Glo); format: biochemical
Method: Measurements were carried out in a 5 μl reaction volume using a 384-well plate (Corning Inc., order no. 4513). The analyzed substances were titrated from 50 μM in increments of 4 at 11 concentration points in a normal strength kinase buffer A (Thermo Fisher Scientific Inc, cat. no. PV3189) supplemented with DTT (Sigma, orde. no. 646563-10X.5ML) and prepared with water (Panreac, order no. 701074). Kinase was diluted in an analogous buffer, mixed with test compounds in plate wells and preincubated for 10 minutes at 25° C. Following incubation, a mixture of reaction substrate (CDKtide (SignalChem, order no. C06-58) or Histone H1 (SignalChem, order no. H10-54N) or PDKtide (SignalChem, order no. P10-58) and ATP (SignalChem, order no. V915B) prepared on a normal strength kinase buffer A was added. 1% solution of dimethyl sulfoxide (DMSO) (Sigma-Aldrich, order no. D2438) in the reaction volume was used as a negative control. The final concentrations of all reaction components are shown in Table 5. The plate was centrifuged at 400 rcf (Eppendorf, 5804 R) for 1 minute and incubated for 40-60 minutes at 25° C. The amount of ATP consumed in the kinase reaction was then measured using the ADP-Glo™ detection system. Luminescence signal was measured using Spark 20M tablet multifunction reader (Tecan Group Ltd, Switzerland). IC50 value was calculated using Magellan 7.2 (Tecan Group Ltd, Switzerland) by approximating experimental points by four-parameter model with the optimization by Levenberg-Marquardt:
[formula] • where A is the upper asymptote; D is the lower asymptote; C is IC50, half-maximal inhibitory concentration of kinase, nM; B is the curvature (slope).

[5] = mean of multiple measurement series, ATP 10 μM, read-out: CDK13/Cyclin K IC50
[6] = mean value from several measurements, read-out: IC50 CDK13/Cyclin K

Chain of CDK13/Cyclin K (Q14004 whole entry): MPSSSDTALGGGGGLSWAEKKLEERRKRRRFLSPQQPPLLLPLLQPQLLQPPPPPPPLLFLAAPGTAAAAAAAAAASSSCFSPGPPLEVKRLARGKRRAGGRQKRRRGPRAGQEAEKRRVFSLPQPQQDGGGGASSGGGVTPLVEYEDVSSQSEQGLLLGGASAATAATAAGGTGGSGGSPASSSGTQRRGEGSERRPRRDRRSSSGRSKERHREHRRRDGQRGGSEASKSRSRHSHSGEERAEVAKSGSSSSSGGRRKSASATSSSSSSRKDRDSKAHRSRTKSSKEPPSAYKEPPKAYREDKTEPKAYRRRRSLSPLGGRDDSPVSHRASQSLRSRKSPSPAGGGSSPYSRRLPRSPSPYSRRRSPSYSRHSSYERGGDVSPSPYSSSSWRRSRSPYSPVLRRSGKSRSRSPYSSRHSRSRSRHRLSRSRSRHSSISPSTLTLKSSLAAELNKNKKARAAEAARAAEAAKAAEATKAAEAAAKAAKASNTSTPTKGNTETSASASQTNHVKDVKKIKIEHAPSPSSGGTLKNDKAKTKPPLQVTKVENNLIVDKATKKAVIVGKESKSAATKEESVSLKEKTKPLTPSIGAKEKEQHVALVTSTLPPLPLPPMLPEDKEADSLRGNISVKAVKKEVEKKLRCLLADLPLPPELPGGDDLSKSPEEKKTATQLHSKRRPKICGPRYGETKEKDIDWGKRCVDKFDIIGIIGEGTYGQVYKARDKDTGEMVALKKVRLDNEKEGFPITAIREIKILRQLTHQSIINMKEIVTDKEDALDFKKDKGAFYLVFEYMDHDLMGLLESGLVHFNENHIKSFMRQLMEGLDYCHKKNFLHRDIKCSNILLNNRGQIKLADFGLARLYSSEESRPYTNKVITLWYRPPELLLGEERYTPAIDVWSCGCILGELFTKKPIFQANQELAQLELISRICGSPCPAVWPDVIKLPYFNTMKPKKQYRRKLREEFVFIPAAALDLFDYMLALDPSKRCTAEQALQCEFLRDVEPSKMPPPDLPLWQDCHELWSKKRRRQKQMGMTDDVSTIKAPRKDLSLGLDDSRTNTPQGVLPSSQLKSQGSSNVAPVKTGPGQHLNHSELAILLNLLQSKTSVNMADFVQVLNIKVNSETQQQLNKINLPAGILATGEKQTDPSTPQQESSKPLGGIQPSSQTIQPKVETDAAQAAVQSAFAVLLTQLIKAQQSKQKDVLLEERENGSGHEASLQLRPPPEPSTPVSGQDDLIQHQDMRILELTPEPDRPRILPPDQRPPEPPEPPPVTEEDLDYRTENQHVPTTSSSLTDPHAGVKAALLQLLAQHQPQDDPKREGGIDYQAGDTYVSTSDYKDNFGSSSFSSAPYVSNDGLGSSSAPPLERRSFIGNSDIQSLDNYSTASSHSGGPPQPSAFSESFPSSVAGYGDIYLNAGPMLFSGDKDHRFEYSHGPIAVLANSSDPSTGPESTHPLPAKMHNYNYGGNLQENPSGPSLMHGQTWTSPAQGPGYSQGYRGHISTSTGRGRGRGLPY
Chain of CDK13/Cyclin K (O75909 whole entry partner): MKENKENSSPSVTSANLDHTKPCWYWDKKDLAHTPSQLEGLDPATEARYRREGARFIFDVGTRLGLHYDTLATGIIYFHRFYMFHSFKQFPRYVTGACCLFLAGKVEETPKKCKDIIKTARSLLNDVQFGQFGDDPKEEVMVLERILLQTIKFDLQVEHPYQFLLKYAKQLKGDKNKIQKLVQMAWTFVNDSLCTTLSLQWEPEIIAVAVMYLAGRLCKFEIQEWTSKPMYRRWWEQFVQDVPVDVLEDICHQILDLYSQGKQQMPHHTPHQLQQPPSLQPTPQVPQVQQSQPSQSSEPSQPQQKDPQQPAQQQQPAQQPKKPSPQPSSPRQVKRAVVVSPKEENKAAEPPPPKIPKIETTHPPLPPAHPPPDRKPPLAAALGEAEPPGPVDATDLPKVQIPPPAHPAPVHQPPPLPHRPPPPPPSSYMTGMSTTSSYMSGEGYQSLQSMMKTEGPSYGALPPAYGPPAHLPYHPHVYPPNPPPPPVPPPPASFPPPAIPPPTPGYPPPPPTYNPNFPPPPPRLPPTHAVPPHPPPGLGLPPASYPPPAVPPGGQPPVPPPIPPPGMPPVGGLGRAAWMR

SMILES | RLM Clint [1] | Papp at 20 h, 10 μmol [2] | CC50 at 72 h [3] | In vitro clearance CLint (HLM) [4] | IC50 (CDK13/Cyclin K; [5]) | IC50 (CDK13/Cyclin K; [6])
CN1CCCc2c(-c3nc(N[C@H]4CCCNC4)ncc3C(F)(F)F)c[nH]c2C1=O [CDK7_953, 7-methyl-3-(2-{[(3S)-piperidin-3-yl]amino}-5-(trifluoromethyl)py-rimidin-4-yl)-1H,4H,5H,6H,7H, 8H-pyrrolo[2,3-c]azepin-8-one] | A (Clint < 20 μl/(min · mg of protein)) | 1 to 5 ×10⁻⁶ cm/s | 500 to 2000 nM | A (Clint < 20 μl/(min · mg of protein)) | 20 nM | 5 to 50 nM
Cn1cc(N2CCCc3c(-c4nc(N[C@H]5CCCNC5)ncc4C(F)(F)F)c[nH]c3C2=O)cn1 [CDK7_955, 7-(1-methyl-1H-pyrazol-4-yl)-3-(2-{[(3S)-piperidin-3-yl]amino}-5-(trifluoromethyl)py-rimidin-4-yl)-1H,4H,5H,6H,7H, 8H-pyrrolo[2,3-c]azepin-8-one] |  | < 1 ×10⁻⁶ cm/s | > 2000 nM | A (Clint < 20 μl/(min · mg of protein)) |  | 
Cn1cc(-n2ccc3c(-c4nc(N[C@H]5CCCNC5)ncc4C(F)(F)F)c[nH]c3c2=O)cn1 [CDK7_959, 6-(1-methyl-1H-pyrazol-4-yl)-3-(2-{[(3S)-piperidin-3-yl]amino}-5-(trifluoromethyl)py-rimidin-4-yl)-1H,6H,7H-pyrrolo[2,3-c]pyridin-7-one] |  | < 1 ×10⁻⁶ cm/s | > 2000 nM | A (Clint < 20 μl/(min · mg of protein)) |  | 
O=c1c2[nH]cc(-c3nc(N[C@H]4CCCNC4)ncc3C(F)(F)F)c2ccn1Cc1ccccc1 [CDK7_961, 6-benzyl-3-(2-{[(3S)-piperidin-3-yl]amino}-5-(trifluoromethyl)py-rimidin-4-yl)-1H,6H,7H-pyrrolo[2,3-c]pyridin-7-one] |  | 1 to 5 ×10⁻⁶ cm/s | 100 to 500 nM | A (Clint < 20 μl/(min · mg of protein)) |  | 
Cn1cc(N2CCCc3c(-c4nc(N[C@H]5CCC(C)(C)NC5)ncc4C(F)(F)F)c[nH]c3C2=O)cn1 [CDK7_1122, 3-(2-{[(3S)-6,6-dimethylpiperidin-3-yl]amino}-5-(trifluoromethyl)py-rimidin-4-yl)-7-(1-methyl-1H-pyrazol-4-yl)-1H,4H,5H,6H,7H, 8H-pyrrolo[2,3-c]azepin-8-one] |  | 1 to 5 ×10⁻⁶ cm/s | > 2000 nM | A (Clint < 20 μl/(min · mg of protein)) |  | 
Cn1cc(-n2ccc3c(-c4nc(N[C@H]5CCC(C)(C)NC5)ncc4C(F)(F)F)c[nH]c3c2=O)cn1 [CDK7_1123, 3-(2-{[(3S)-6,6-dimethylpiperidin-3-yl]amino}-5-(trifluoromethyl)py-rimidin-4-yl)-6-(1-methyl-1H-pyrazol-4-yl)-1H,6H,7H-pyrrolo[2,3-c]pyridin-7-one] |  | < 1 ×10⁻⁶ cm/s | > 2000 nM | A (Clint < 20 μl/(min · mg of protein)) | 25 nM | 5 to 50 nM
O=C1c2[nH]cc(-c3nc(NC4CCCNC4)ncc3C(F)(F)F)c2CCCN1c1nccs1 (stereo not drawn) [CDK7_1172] |  | 1 to 5 ×10⁻⁶ cm/s | > 2000 nM | B (50 μl/(min · mg of protein) > Clint > 20 μl/(min · mg of protein)) |  | 
O=C1c2[nH]cc(-c3nc(N[C@H]4CCCNC4)ncc3C(F)(F)F)c2CCCN1c1ccccn1 [CDK7_1176, 3-(2-{[(3S)-piperidin-3-yl]amino}-5-(trifluoromethyl)py-rimidin-4-yl)-7-(pyridin-2-yl)-1H,4H,5H,6H,7H, 8H-pyrrolo[2,3-c]azepin-8-one] |  | 1 to 5 ×10⁻⁶ cm/s | > 2000 nM | A (Clint < 20 μl/(min · mg of protein)) |  | 
CN1CCCc2c(-c3nc(N[C@H]4CCC(C)(C)NC4)ncc3C(F)(F)F)c[nH]c2C1=O [CDK7_1187, 3-(2-{[(3S)-6,6-dimethylpiperidin-3-yl]amino}-5-(trifluoromethyl)py-rimidin-4-yl)-7-methyl-1H,4H,5H,6H,7H, 8H-pyrrolo[2,3-c]azepin-8-one] | A (Clint < 20 μl/(min · mg of protein)) | 1 to 5 ×10⁻⁶ cm/s | > 2000 nM | B (50 μl/(min · mg of protein) > Clint > 20 μl/(min · mg of protein)) | 81 nM | 50 to 200 nM
O=C1c2[nH]cc(-c3nc(NC4CCCNC4)ncc3C(F)(F)F)c2CCCN1C1CC1 (stereo not drawn) [CDK7_1188] | A (Clint < 20 μl/(min · mg of protein)) | 1 to 5 ×10⁻⁶ cm/s | > 2000 nM | A (Clint < 20 μl/(min · mg of protein)) |  | 
CC1(C)CC[C@H](Nc2ncc(C(F)(F)F)c(-c3c[nH]c4c3CCCN(C3CC3)C4=O)n2)CN1 [CDK7_1225, 7-cyclopropyl-3-(2-{[(3S)-6,6-dimethylpiperidin-3-yl]amino}-5-(trifluoromethyl)py-rimidin-4-yl)-1H,4H,5H,6H,7H, 8H-pyrrolo[2,3-c]azepin-8-one] | A (Clint < 20 μl/(min · mg of protein)) | 1 to 5 ×10⁻⁶ cm/s | > 2000 nM | A (Clint < 20 μl/(min · mg of protein)) | 203 nM | > 200 nM
CC1(C)CC[C@H](Nc2ncc(C(F)(F)F)c(-c3c[nH]c4c3CCCN(CC3CC3)C4=O)n2)CN1 [CDK7_1227, 7-(cyclopropylmeth-yl)-3-(2-{[(3S)-6,6-dimethylpiperidin-3-yl]amino}-5-(trifluoromethyl)py-rimidin-4-yl)-1H,4H,5H,6H,7H, 8H-pyrrolo[2,3-c]azepin-8-one] | A (Clint < 20 μl/(min · mg of protein)) | 5 to 10 ×10⁻⁶ cm/s | > 2000 nM |  |  | 
CC1CCc2c(-c3nc(N[C@H]4CCCNC4)ncc3C(F)(F)F)c[nH]c2C(=O)N1C (stereo partly drawn) [CDK7_1254, 6,7-dimethyl-3-(2-{[(3S)-piperidin-3-yl]amino}-5-(trifluoromethyl)py-rimidin-4-yl)-1H,4H,5H,6H,7H, 8H-pyrrolo[2,3-c]azepin-8-one] |  | 1 to 5 ×10⁻⁶ cm/s | > 2000 nM | A (Clint < 20 μl/(min · mg of protein)) |  | 
CCN1CCCc2c(-c3nc(N[C@H]4CCC(C)(C)NC4)ncc3C(F)(F)F)c[nH]c2C1=O [CDK7_1259, 3-(2-{[(3S)-6,6-dimethylpiperidin-3-yl]amino}-5-(trifluoromethyl)py-rimidin-4-yl)-7-ethyl-1H,4H,5H,6H,7H, 8H-pyrrolo[2,3-c]azepin-8-one] | A (Clint < 20 μl/(min · mg of protein)) | 1 to 5 ×10⁻⁶ cm/s | > 2000 nM |  |  | 
